In PMC11401813, “Grewiifopenes A–K, bioactive clerodane diterpenoids from Casearia grewiifolia Vent” (Natural Products and Bioprospecting, 2024):
Values after ≈ are worked out from the molar mass of the structure shown. Like-named read-outs stand apart in the source and are kept apart here.

What was measured:
[1] = test system: HuCCA-1 (cholangiocarcinoma); test: Cytotoxicity, MTT assay, HuCCA-1; type: cell-based, human; conditions: Homo sapiens
Procedure: (§1) The in vitro cytotoxicity assay toward a panel of human cancer cell lines of several clerodane diterpenoids has been well investigated. Thus, the isolates in adequate amounts were tested against MOLT-3 (acute lymphoblastic leukemia), HuCCA-1 (cholangiocarcinoma), HepG2 (hepatocellular carcinoma), A549 (lung adenocarcinoma), HeLa (cervical carcinoma), and MDA-MB-231 (triple negative breast cancer) cancer cell lines using the MTT and XTT methods. Doxorubicin and etoposide were used as positive controls.
(§2) The MTT (3-(4,5-dimethylthiazol-2-yl)-2,5-diphenyltetrazolium bromide) assay was employed for the cytotoxic evaluation against five human cancer cell lines, including HepG2, A549, MDA-MB-231, HeLa, and HuCCA-1, while the XTT (2,3-bis-(2-methoxy-4-nitro-5-sulphenyl)-(2H)-tetrazolium-5-carboxanilide) method was used for MOLT-3 cancer cell.

aromatase (CYP19) = molecular target: T1, aromatase (CYP19) (Homo sapiens, UniProt P11511); test: Aromatase (CYP19) inhibition assay; type: biochemical; conditions: for inhibition at 12.5 µM: at a concentration of 12.5 µM; for Aromatase inhibitory activity (in words): at the concentration up to 12.15 µM
T1 construct: purchased
T1 sequence (P11511 1-503): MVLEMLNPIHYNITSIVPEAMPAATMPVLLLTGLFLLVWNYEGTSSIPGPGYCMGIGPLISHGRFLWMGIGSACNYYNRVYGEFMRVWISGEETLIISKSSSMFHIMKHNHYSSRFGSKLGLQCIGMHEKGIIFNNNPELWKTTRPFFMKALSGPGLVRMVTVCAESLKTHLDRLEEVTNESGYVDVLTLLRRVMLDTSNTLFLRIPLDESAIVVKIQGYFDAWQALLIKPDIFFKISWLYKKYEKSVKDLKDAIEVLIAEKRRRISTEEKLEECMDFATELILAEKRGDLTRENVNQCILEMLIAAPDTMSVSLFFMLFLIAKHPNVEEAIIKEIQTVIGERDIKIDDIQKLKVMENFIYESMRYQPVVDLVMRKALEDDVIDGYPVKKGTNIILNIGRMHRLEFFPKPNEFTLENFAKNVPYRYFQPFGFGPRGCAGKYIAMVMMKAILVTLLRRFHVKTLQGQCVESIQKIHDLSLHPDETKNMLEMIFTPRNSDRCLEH
Procedure: (§3) In addition, the isolates were also evaluated for their antibacterial activity towards three strains including Bacillus cereus (ATCC 11778), Staphylococcus aureus (ATCC 6538) and Staphylococcus epidermidis (ATCC 12228) using penicillin G and gentamicin as the antibiotic controls (Table 5). […] Finally, the inhibitory activity of aromatase by using a CYP19 screening kit was investigated. The aromatase (also called estrogen synthase) is responsible for converting the non-aromatic ring A of androgens to estrogens, which are related to the proliferation of breast cancer cells.
The aromatase assay used a method previously designed by Stresser and co-workers.

[2] = test system: Staphylococcus aureus (ATCC 6538); test: Antibacterial broth microdilution (MIC/MBC), S. aureus; type: cell-based; conditions: ATCC6538
Procedure: as §3
(§4) The tested strains, Staphylococcus aureus (S. aureus) ATCC6538, Staphylococcus epidermidis (S. epidermidis) ATCC12228, and Bacillus cereus (B. cereus) ATCC11778 were obtained from the American Type Culture Collection (ATCC).
(§5) All tested species were grown on Mueller Hinton Agar (MHA) and incubated at 37 °C for 18–24 h. The bacterial colonies suspension in sterile normal saline was diluted until they reached a 1 × 10^6 CFC/mL concentration, which was then compared to the McFarland scale. This step provided a standard bacterial suspension (1 × 10^6 CFU/mL), which was used for the following assays.
(§6) The broth microdilution technique was used for the MIC and MBC determination, which was expressed according to Clinical and Laboratory Standards Institute (CLSI) standard M07 guideline. The compounds were prepared as a stock solution by dissolving in dimethyl sulfoxide (DMSO) with the concentration ranging from 0.195 to 200 µg/mL. DMSO and penicillin G or gentamicin were used as normal and standard drug control. […] Three replicates were performed for each experiment.

[3] = test system: HeLa (cervical carcinoma); test: Cytotoxicity, MTT assay, HeLa; type: cell-based, human; conditions: Homo sapiens, HeLa, read-out: IC50, HeLa
Procedure: as §1, §2

[4] = test system: Bacillus cereus (ATCC 11778); test: Antibacterial broth microdilution (MIC/MBC), B. cereus; type: cell-based; conditions: for MBC / MIC: Bacillus cereus, ATCC11778
Procedure: as §3, §4, §5, §6

[5] = test system: HepG2 (hepatocellular carcinoma); test: Cytotoxicity, MTT assay, HepG2; type: cell-based, human; conditions: Homo sapiens
Procedure: as §1, §2

[6] = test system: A549 (lung adenocarcinoma); test: Cytotoxicity, MTT assay, A549; type: cell-based, human; conditions: Homo sapiens, A549, A549 cell line, mean ± s.d. (n = 3)
Procedure: as §1, §2

[7] = test system: Staphylococcus epidermidis (ATCC 12228); test: Antibacterial broth microdilution (MIC/MBC), S. epidermidis; type: cell-based; conditions: ATCC12228
Procedure: as §3, §4, §5, §6

[8] = test system: MOLT-3 (acute lymphoblastic leukemia); test: Cytotoxicity, XTT method, MOLT-3; type: cell-based; conditions: Homo sapiens
Procedure: as §1, §2

[9] = test system: MDA-MB-231 (triple negative breast cancer); test: Cytotoxicity, MTT assay, MDA-MB-231; type: cell-based, human
Procedure: as §1, §2

[10] = test system: MOLT-3, HuCCA-1, HepG2, A549, HeLa, and MDA-MB-231 cancer cell lines; test: Cytotoxicity toward panel of human cancer cell lines (MTT and XTT); type: cell-based; conditions: Homo sapiens, read-out: IC50 range over the cancer cell line panel
Description: The in vitro cytotoxicity assay toward a panel of human cancer cell lines of several clerodane diterpenoids has been well investigated. […] Doxorubicin and etoposide were used as positive controls.

[11] = HuCC-A1, HuCCA-1 cell line, MTT, mean ± s.d. (n = 3), read-out: IC50, HuCCA-1
[12] = HeLa cell line, MTT, mean ± s.d. (n = 3)
[13] = HepG2, HepG2 cell line, MTT, mean ± s.d. (n = 3), read-out: IC50, HepG2
[14] = MOLT-3 cell line, XTT, mean ± s.d. (n = 3), read-out: IC50, MOLT-3
[15] = Homo sapiens, MDA-MB-231, MDA-MB-231 cell line, MTT, mean ± s.d. (n = 3), read-out: IC50, MDA-MB-231
[16] = range over all cell lines tested
[17] = MDA-MB-231 cell line, MTT, mean ± s.d. (n = 3), read-out: IC50, MDA-MB-231

SMILES	IC50 [1, 11] [µM]	inhibition at 12.5 µM (aromatase (CYP19)) [%]	Aromatase inhibitory activity (in words) (aromatase (CYP19))	MBC [2] [µg/mL]	MIC [2] [µg/mL]	IC50 [3, 12] [µM]	MBC [4] [µg/mL]	MIC [4] [µg/mL]	IC50 [5, 13] [µM]	IC50 [6] [µM]	MBC [7] [µg/mL]	MIC [7] [µg/mL]	IC50 [8, 14] [µM]	IC50 [9, 15] [µM]	other results
C=CC(=C)CC[C@]1(C)[C@H](C)[C@@H](OC(C)=O)[C@H](OC(C)=O)[C@@]23C(=C[C@H](OC(=O)CC(C)C)C[C@@H]12)[C@@H](OC(C)=O)O[C@H]3OC(C)=O [Compound 3, Grewiifopene C]	3.9 ± 0.2	15	did not show activity	> 200	> 200	5.3 ± 0.1	> 200	> 200	13.2 ± 0.5	5.1 ± 1.1	> 200	> 200	2.7 ± 0.3	8.4 ± 0.1	–
C=CC(=C)CC[C@]1(C)[C@H](C)C[C@H](O)[C@@]23C(=C[C@H](OC(=O)[C@@H](C)CC)C[C@@H]12)[C@@H](OC(C)=O)O[C@H]3OC(C)=O [Compound 7, isocaseamembrin E]	0.7 ± 0.1	0	did not show activity	50 (≈ 96.4 µM)	25 (≈ 48.2 µM)	0.9 ± 0.1	> 200	6.25 (≈ 12.1 µM)	1.9 ± 0.4	0.3 ± 0.02	> 200	100 (≈ 193 µM)	1.4 ± 0.2	2 to 2.2	IC50 [10, 16]: 0.3 to 2.9 µM; IC50 [9, 17]: 2 ± 0.2 µM
C=CC(=C)CC[C@]1(C)[C@H](C)C[C@H](O)[C@@]23C(=C[C@H](OC(=O)CC(C)C)C[C@@H]12)[C@@H](OC(C)=O)O[C@H]3OC(C)=O [Compound 8, corymbulosin X]	0.4 ± 0.1	–	–	> 200	> 200	1.8 ± 0.2	50 (≈ 96.4 µM)	25 (≈ 48.2 µM)	2.4 ± 0.1	0.6 ± 0.1	> 200	> 200	1.2 ± 0.2	2 to 2.2	IC50 [10, 16]: 0.3 to 2.9 µM; IC50 [9, 17]: 2.2 ± 0.1 µM
C=CC(=C)CC[C@]1(C)[C@H]2C[C@H](OC(=O)CC(C)C)C=C3[C@H](OC(C)=O)O[C@H](OC(C)=O)[C@@]32[C@H](OC)C[C@@H]1C [Compound 9, caseargrewiin A]	5.2 ± 0.4	31	did not show activity	> 200	> 200	5.2 ± 0.1	100 (≈ 188 µM)	100 (≈ 188 µM)	9.5 ± 0.8	5 ± 0.5	> 200	> 200	3 ± 0.2	8.1 ± 0.4	–
C=CC(=C)CC[C@]1(C)[C@H](C)C[C@H](OC)[C@@]23C(=C[C@H](OC(=O)[C@@H](C)CC)C[C@@H]12)[C@@H](OC)O[C@H]3OC(C)=O [Compound 11, balanspene F]	3.3 ± 0.4	25	did not show activity	> 200	> 200	10.3 ± 0.5	25 (≈ 49.5 µM)	12.5 (≈ 24.8 µM)	14.3 ± 1.5	3 ± 0.4	> 200	> 200	5 ± 1.7	11.4 ± 0.5	MBC, B. cereus (ATCC 11778) [4]: 25 µg/mL (≈ 49.5 µM)
C=CC(=C)CC[C@]1(C)[C@H](C)[C@@H](OC(=O)CC(C)C)[C@H](O)[C@@]23C(=C[C@H](OC(=O)CC(C)C)C[C@@H]12)[C@@H](OC(C)=O)O[C@H]3OC(C)=O [Compound 12, Grewiifopene E]	4.4 ± 0.4	0	did not show activity	–	–	3.8 ± 0.6	–	–	8.9 ± 0.3	3.6 ± 0.04	–	–	1.7 ± 0.4	7.6 ± 0.9	–
C=CC(C)=CCC1(C)C(C)CC(O)C23C(=CC(OC(=O)C(C)CC)CC12)C(OC(C)=O)OC3OC(C)=O (centres unmarked) [Compound 16, Grewiifopene I]	–	–	–	–	–	–	–	–	–	–	–	–	–	–	IC50 [10]: 0.3 to 2.9 µM; IC50 ([1]; HuCC-A1, read-out: IC50, HuCCA-1): 0.7 ± 0.02 µM; IC50 [3]: 0.8 ± 0.1 µM; IC50 ([5]; HepG2, read-out: IC50, HepG2): 2.9 µM; IC50 ([8]; MOLT-3, read-out: IC50, MOLT-3): 1.2 ± 0.2 µM; IC50 ([9]; Homo sapiens, MDA-MB-231, read-out: IC50, MDA-MB-231): 2 ± 0.1 µM
COC1=CC(=O)C=C(OC)C1(O)CC(C)=O [Compound 20, 4-acetonyl-3,5-dimethoxy-p-quinol]	111 ± 2.2	0	did not show activity	> 200	> 200	132 ± 3.8	> 200	> 200	122 ± 11.3	125 ± 4.7	> 200	> 200	10 ± 3.5	24.4 ± 1.2	–
